Measurements as given in PubChem BioAssay AID256 (DTP/NCI, 2004).
Several values for one entry are separate records, joined by “and”; a condition that tells them apart may be missing. Equal values may be shown once. Toxic doses and inconclusive results are not listed.

System: CD2F1 mice, L1210 leukemia ip, survival T/C
Assay: NCI In Vivo Anticancer Drug Screen. Data for tumor model L1210 Leukemia (intraperitoneal) in CD2F1 (CDF1) mice
Settings: higher = longer survival
How it was run: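 Tumor-bearing mice (transplanted tumor) were split into treated and vehicle control groups, and the measured endpoint of each treated group was divided by that of its vehicle controls.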

[1] = endpoint: mean survival time, dose: 100.0 mg/kg/injection, schedule: Q04DX003 (ip), vehicle: saline with Tween-80
[2] = endpoint: mean survival time, dose: 200.0 mg/kg/injection, schedule: Q04DX003 (ip), vehicle: saline with Tween-80
[3] = endpoint: mean survival time, dose: 400.0 mg/kg/injection, schedule: Q04DX003 (ip), vehicle: saline with Tween-80

Structure (SMILES): Cc1c2ccncc2c(C)c2c1[nH]c1ccccc12
- T/C (endpoint: mean survival time, dose: 2.0 mg/kg/injection, schedule: Q01DX009 (ip), vehicle: saline with Tween-80): 113 % of control and 114 % of control and 105 % of control
- T/C (endpoint: mean survival time, dose: 3.13 mg/kg/injection, schedule: Q01DX009 (ip), vehicle: water): 119 % of control
- T/C (endpoint: mean survival time, dose: 4.0 mg/kg/injection, schedule: Q01DX009 (ip), vehicle: saline with Tween-80): 122 % of control and 124 % of control
- T/C (endpoint: mean survival time, dose: 6.25 mg/kg/injection, schedule: Q01DX009 (ip), vehicle: other): 157 % of control
- T/C (endpoint: mean survival time, dose: 6.25 mg/kg/injection, schedule: Q01DX009 (ip), vehicle: water): 151 % of control
- T/C (endpoint: mean survival time, dose: 6.25 mg/kg/injection, schedule: Q01DX009 (oral), vehicle: other): 116 % of control
- T/C (endpoint: mean survival time, dose: 6.25 mg/kg/injection, schedule: Q01DX009 (oral), vehicle: saline): 117 % of control
- T/C (endpoint: mean survival time, dose: 6.25 mg/kg/injection, schedule: Q01DX009 (oral), vehicle: water): 123 % of control
- T/C (endpoint: mean survival time, dose: 6.25 mg/kg/injection, schedule: Q04DX003 (ip), vehicle: other): 112 % of control
- T/C (endpoint: mean survival time, dose: 6.25 mg/kg/injection, schedule: Q04DX003 (ip), vehicle: water): 108 % of control
- T/C (endpoint: mean survival time, dose: 10.0 mg/kg/injection, schedule: Q01DX001 (ip), vehicle: water): 104 % of control
- T/C (endpoint: mean survival time, dose: 10.0 mg/kg/injection, schedule: Q01DX009 (ip), vehicle: saline with Tween-80): 153 % of control
- T/C (endpoint: mean survival time, dose: 10.0 mg/kg/injection, schedule: Q04DX003 (ip), vehicle: saline with Tween-80): 123 % of control
- T/C (endpoint: mean survival time, dose: 12.5 mg/kg/injection, schedule: Q01DX009 (ip), vehicle: other): 198 % of control
- T/C (endpoint: mean survival time, dose: 12.5 mg/kg/injection, schedule: Q01DX009 (ip), vehicle: saline): 180 % of control
- T/C (endpoint: mean survival time, dose: 12.5 mg/kg/injection, schedule: Q01DX009 (ip), vehicle: water): 208 % of control
- T/C (endpoint: mean survival time, dose: 12.5 mg/kg/injection, schedule: Q01DX009 (oral), vehicle: saline): 109 % of control
- T/C (endpoint: mean survival time, dose: 12.5 mg/kg/injection, schedule: Q04DX003 (ip), vehicle: distilled water + Tween-80): 111 % of control
- T/C (endpoint: mean survival time, dose: 12.5 mg/kg/injection, schedule: Q04DX003 (ip), vehicle: saline with Tween-80): 123 % of control
- T/C (endpoint: mean survival time, dose: 12.5 mg/kg/injection, schedule: Q04DX003 (ip), vehicle: water): 122 % of control and 124 % of control
- T/C (endpoint: mean survival time, dose: 12.5 mg/kg/injection, schedule: Q04DX003 (oral), vehicle: other): 103 % of control and 108 % of control
- T/C (endpoint: mean survival time, dose: 12.5 mg/kg/injection, schedule: Q04DX003 (oral), vehicle: saline): 113 % of control and 107 % of control
- T/C (endpoint: mean survival time, dose: 12.5 mg/kg/injection, schedule: Q04DX003 (oral), vehicle: water): 114 % of control and 109 % of control
- T/C (endpoint: mean survival time, dose: 20.0 mg/kg/injection, schedule: Q01DX001 (ip), vehicle: water): 104 % of control
- T/C (endpoint: mean survival time, dose: 20.0 mg/kg/injection, schedule: Q01DX009 (ip), vehicle: saline with Tween-80): 188 % of control and 205 % of control
- T/C (endpoint: mean survival time, dose: 20.0 mg/kg/injection, schedule: Q04DX003 (ip), vehicle: saline with Tween-80): 157 % of control
- T/C (endpoint: mean survival time, dose: 25.0 mg/kg/injection, schedule: Q01DX009 (ip), vehicle: other): 118 % of control
- T/C (endpoint: mean survival time, dose: 25.0 mg/kg/injection, schedule: Q01DX009 (ip), vehicle: saline): 218 % of control
- T/C (endpoint: mean survival time, dose: 25.0 mg/kg/injection, schedule: Q01DX009 (ip), vehicle: water): 100 % of control
- T/C (endpoint: mean survival time, dose: 25.0 mg/kg/injection, schedule: Q01DX009 (oral), vehicle: other): 163 % of control
- T/C (endpoint: mean survival time, dose: 25.0 mg/kg/injection, schedule: Q01DX009 (oral), vehicle: water): 159 % of control
- T/C (endpoint: mean survival time, dose: 25.0 mg/kg/injection, schedule: Q04DX003 (ip), vehicle: distilled water + Tween-80): 121 % of control
- T/C (endpoint: mean survival time, dose: 25.0 mg/kg/injection, schedule: Q04DX003 (ip), vehicle: saline): 156 % of control
- T/C (endpoint: mean survival time, dose: 25.0 mg/kg/injection, schedule: Q04DX003 (ip), vehicle: water): 157 % of control and 190 % of control
- T/C (endpoint: mean survival time, dose: 25.0 mg/kg/injection, schedule: Q04DX003 (oral), vehicle: other): 116 % of control
- T/C (endpoint: mean survival time, dose: 25.0 mg/kg/injection, schedule: Q04DX003 (oral), vehicle: saline): 116 % of control and 118 % of control
- T/C (endpoint: mean survival time, dose: 25.0 mg/kg/injection, schedule: Q04DX003 (oral), vehicle: water): 116 % of control
- T/C (endpoint: mean survival time, dose: 32.0 mg/kg/injection, schedule: Q01DX009 (ip), vehicle: saline with Tween-80): 182 % of control
- T/C (endpoint: mean survival time, dose: 40.0 mg/kg/injection, schedule: Q01DX009 (ip), vehicle: saline with Tween-80): 153 % of control
- T/C (endpoint: mean survival time, dose: 40.0 mg/kg/injection, schedule: Q04DX003 (ip), vehicle: saline with Tween-80): 182 % of control and 202 % of control
- T/C (endpoint: mean survival time, dose: 50.0 mg/kg/injection, schedule: Q01DX009 (ip), vehicle: other): 92 % of control
- T/C (endpoint: mean survival time, dose: 50.0 mg/kg/injection, schedule: Q01DX009 (ip), vehicle: saline): 185 % of control
- T/C (endpoint: mean survival time, dose: 50.0 mg/kg/injection, schedule: Q01DX009 (ip), vehicle: water): 87 % of control
- T/C (endpoint: mean survival time, dose: 50.0 mg/kg/injection, schedule: Q01DX009 (oral), vehicle: saline): 152 % of control
- T/C (endpoint: mean survival time, dose: 50.0 mg/kg/injection, schedule: Q01DX009 (oral), vehicle: water): 107 % of control
- T/C (endpoint: mean survival time, dose: 50.0 mg/kg/injection, schedule: Q04DX003 (ip), vehicle: distilled water + Tween-80): 156 % of control
- T/C (endpoint: mean survival time, dose: 50.0 mg/kg/injection, schedule: Q04DX003 (ip), vehicle: saline with Tween-80): 119 % of control
- T/C (endpoint: mean survival time, dose: 50.0 mg/kg/injection, schedule: Q04DX003 (ip), vehicle: saline): 177 % of control
- T/C (endpoint: mean survival time, dose: 50.0 mg/kg/injection, schedule: Q04DX003 (ip), vehicle: water): 186 % of control
- T/C (endpoint: mean survival time, dose: 50.0 mg/kg/injection, schedule: Q04DX003 (oral), vehicle: other): 153 % of control
- T/C (endpoint: mean survival time, dose: 50.0 mg/kg/injection, schedule: Q04DX003 (oral), vehicle: saline): 167 % of control
- T/C (endpoint: mean survival time, dose: 50.0 mg/kg/injection, schedule: Q04DX003 (oral), vehicle: water): 152 % of control and 158 % of control
- T/C (endpoint: mean survival time, dose: 64.0 mg/kg/injection, schedule: Q01DX009 (ip), vehicle: saline with Tween-80): 120 % of control and 102 % of control and 107 % of control
- T/C (endpoint: mean survival time, dose: 80.0 mg/kg/injection, schedule: Q01DX001 (ip), vehicle: water): 162 % of control
- T/C (endpoint: mean survival time, dose: 100.0 mg/kg/injection, schedule: Q01DX001 (ip), vehicle: other): 205 % of control
- T/C (endpoint: mean survival time, dose: 100.0 mg/kg/injection, schedule: Q01DX009 (oral), vehicle: saline): 94 % of control
- T/C (endpoint: mean survival time, dose: 100.0 mg/kg/injection, schedule: Q04DX003 (ip), vehicle: distilled water + Tween-80): 163 % of control and 177 % of control
- T/C (endpoint: mean survival time, dose: 100.0 mg/kg/injection, schedule: Q04DX003 (ip), vehicle: saline): 216 % of control
- T/C (endpoint: mean survival time, dose: 100.0 mg/kg/injection, schedule: Q04DX003 (oral), vehicle: saline): 163 % of control and 179 % of control
- T/C (endpoint: mean survival time, dose: 200.0 mg/kg/injection, schedule: Q01DX001 (ip), vehicle: other): 224 % of control
- T/C (endpoint: mean survival time, dose: 200.0 mg/kg/injection, schedule: Q04DX003 (ip), vehicle: distilled water + Tween-80): 113 % of control and 104 % of control
- T/C (endpoint: mean survival time, dose: 200.0 mg/kg/injection, schedule: Q04DX003 (oral), vehicle: other): 113 % of control
- T/C (endpoint: mean survival time, dose: 200.0 mg/kg/injection, schedule: Q04DX003 (oral), vehicle: saline): 122 % of control and 102 % of control
- T/C (endpoint: mean survival time, dose: 400.0 mg/kg/injection, schedule: Q01DX001 (ip), vehicle: other): 186 % of control
- T/C (endpoint: mean survival time, dose: 400.0 mg/kg/injection, schedule: Q04DX003 (oral), vehicle: other): 96 % of control
- T/C (endpoint: median survival time, dose: 10.0 mg/kg/injection, schedule: Q01DX001 (ip), vehicle: water): 106 % of control
- T/C (endpoint: median survival time, dose: 20.0 mg/kg/injection, schedule: Q01DX001 (ip), vehicle: water): 117 % of control
- T/C (endpoint: median survival time, dose: 80.0 mg/kg/injection, schedule: Q01DX001 (ip), vehicle: water): 153 % of control

Structure (SMILES): COc1ccc(NC(=O)Nc2ccc(C(C)C)cc2)cc1
- T/C [1]: 93 % of control
- T/C [2]: 91 % of control
- T/C [3]: 95 % of control

Structure (SMILES): CC(C)CCCC(C)C1CCC2C3CCC4CC(OCN5CCCCC5)CCC4(C)C3CCC12C (stereo not drawn)
- T/C (endpoint: mean survival time, dose: 100.0 mg/kg/injection, schedule: Q04DX003 (ip), vehicle: Klucel (hydroxypropylcellulose) (HPC)): 95 % of control
- T/C (endpoint: mean survival time, dose: 200.0 mg/kg/injection, schedule: Q04DX003 (ip), vehicle: Klucel (hydroxypropylcellulose) (HPC)): 92 % of control
- T/C (endpoint: mean survival time, dose: 400.0 mg/kg/injection, schedule: Q04DX003 (ip), vehicle: Klucel (hydroxypropylcellulose) (HPC)): 92 % of control

Structure (SMILES): N#CCCc1c(O)ccc2ccccc12
- T/C [1]: 86 % of control
- T/C [2]: 92 % of control
- T/C [3]: 86 % of control

Structure (SMILES): CCOC(C)C(O)(c1ccc(N(C)C)cc1)c1ccc(N(C)C)cc1 (stereo not drawn)
- T/C (endpoint: mean survival time, dose: 100.0 mg/kg/injection, schedule: Q04DX003 (ip), vehicle: other): 95 % of control
- T/C (endpoint: mean survival time, dose: 200.0 mg/kg/injection, schedule: Q04DX003 (ip), vehicle: other): 91 % of control
- T/C (endpoint: mean survival time, dose: 400.0 mg/kg/injection, schedule: Q04DX003 (ip), vehicle: other): 97 % of control

Structure (SMILES): ONC(CC(O)(NO)NO)c1ccccc1 (stereo not drawn)
- T/C (endpoint: mean survival time, dose: 100.0 mg/kg/injection, schedule: Q01DX001 (ip), vehicle: saline): 107 % of control
- T/C (endpoint: mean survival time, dose: 200.0 mg/kg/injection, schedule: Q01DX001 (ip), vehicle: saline): 107 % of control
- T/C (endpoint: mean survival time, dose: 400.0 mg/kg/injection, schedule: Q01DX001 (ip), vehicle: saline): 108 % of control
